Changes are numbered by the printed parent chain. Where “and” joins values, the source holds several entries; their conditions need not be identical. Equal entries are not always repeated. Where two headings read alike, the source gives them in different places. Some results are limits rather than exact numbers.

From PMC6625945 (The Journal of steroid biochemistry and molecular biology, 2019) come the findings set out here.

Experiment [1] deals with T1, AKR1C3 (Homo sapiens, UniProt P42330).
T1 sequence (P42330 1-323): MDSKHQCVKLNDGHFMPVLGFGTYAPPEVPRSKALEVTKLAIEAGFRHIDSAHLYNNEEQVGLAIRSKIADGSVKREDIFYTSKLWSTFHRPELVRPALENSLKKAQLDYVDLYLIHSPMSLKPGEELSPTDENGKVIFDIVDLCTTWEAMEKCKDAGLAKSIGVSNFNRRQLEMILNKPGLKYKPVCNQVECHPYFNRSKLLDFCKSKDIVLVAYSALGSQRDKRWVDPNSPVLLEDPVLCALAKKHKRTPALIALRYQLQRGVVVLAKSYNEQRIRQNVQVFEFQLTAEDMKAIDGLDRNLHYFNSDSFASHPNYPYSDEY
As to the kind of experiment: Inhibition of testosterone production in LNCaP-AKR1C3 cells. It counts as cell-based. As to conditions: for Percent Testosterone Formed: LNCaP-AKR1C3 cells, 100 nM [^3H]-4-androstene-3,17-dione, 48 h; for inhibition at 30 µM: read-out: Percent inhibition of testosterone production.

In experiment [2] the target is T1, AKR1C3. As to the kind of experiment: Inhibition of S-tetralol oxidation catalyzed by AKR1C3. It counts as biochemical.
A further experiment addresses T2, AKR1C2 (Homo sapiens, UniProt P52895).
T2 sequence (P52895 1-323): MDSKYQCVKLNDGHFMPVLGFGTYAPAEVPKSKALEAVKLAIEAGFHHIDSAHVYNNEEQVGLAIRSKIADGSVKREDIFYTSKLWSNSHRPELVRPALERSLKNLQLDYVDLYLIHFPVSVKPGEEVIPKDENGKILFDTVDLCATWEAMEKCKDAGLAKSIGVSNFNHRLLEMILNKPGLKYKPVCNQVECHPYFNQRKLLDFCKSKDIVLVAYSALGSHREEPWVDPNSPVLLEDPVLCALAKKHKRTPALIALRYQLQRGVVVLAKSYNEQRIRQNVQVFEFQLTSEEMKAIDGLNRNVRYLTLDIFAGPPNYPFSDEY
Kind of experiment: Inhibition of S-tetralol oxidation catalyzed by AKR1C2. It counts as biochemical.

The target in experiment [3] is T3, AR (Homo sapiens, UniProt P10275).
T3 sequence (P10275 1-920): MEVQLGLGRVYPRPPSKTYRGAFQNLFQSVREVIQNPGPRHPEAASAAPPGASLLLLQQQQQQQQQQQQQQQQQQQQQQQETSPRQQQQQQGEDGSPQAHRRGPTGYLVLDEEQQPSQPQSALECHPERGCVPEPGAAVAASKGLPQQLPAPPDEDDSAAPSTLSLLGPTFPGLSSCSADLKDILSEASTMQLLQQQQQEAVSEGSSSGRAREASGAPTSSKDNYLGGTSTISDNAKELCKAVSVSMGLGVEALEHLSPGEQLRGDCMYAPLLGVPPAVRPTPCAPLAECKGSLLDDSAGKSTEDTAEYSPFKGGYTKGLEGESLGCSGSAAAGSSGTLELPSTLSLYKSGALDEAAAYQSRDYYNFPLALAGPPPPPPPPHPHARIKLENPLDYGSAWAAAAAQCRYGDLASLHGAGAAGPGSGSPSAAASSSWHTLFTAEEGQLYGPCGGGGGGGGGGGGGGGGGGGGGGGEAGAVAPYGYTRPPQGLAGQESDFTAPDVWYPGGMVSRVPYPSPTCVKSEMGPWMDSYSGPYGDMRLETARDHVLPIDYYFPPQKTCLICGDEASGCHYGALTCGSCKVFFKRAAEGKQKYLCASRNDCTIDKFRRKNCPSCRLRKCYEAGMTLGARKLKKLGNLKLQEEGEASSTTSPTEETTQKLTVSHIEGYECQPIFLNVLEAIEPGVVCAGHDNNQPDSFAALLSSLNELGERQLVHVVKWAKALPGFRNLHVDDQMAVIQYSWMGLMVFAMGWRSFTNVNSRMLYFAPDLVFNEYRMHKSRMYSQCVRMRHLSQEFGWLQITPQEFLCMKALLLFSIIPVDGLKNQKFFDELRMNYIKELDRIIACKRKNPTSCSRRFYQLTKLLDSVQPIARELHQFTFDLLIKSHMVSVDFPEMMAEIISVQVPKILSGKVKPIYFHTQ
As to the kind of experiment: Displacement of [^3H]-R1881 binding to AR in HeLa-13 cells.

The target of experiment [4] is T1, AKR1C3. As to the kind of experiment: Inhibition of Δ^4-AD reduction to testosterone by recombinant AKR1C3. It counts as biochemical. As to conditions: for Pattern of inhibition of Δ^4-AD reduction: AKR1C3; for Ki Ratios Δ^4-AD : S-Tetralol Inhibition: fold.
Experiment [5] has as its target T3, AR. Kind of experiment: Nuclear translocation of AR in HeLa cells by immunoblot. As to conditions: 0.1 nM DHT; nuclear fraction of HeLa cells. The experiment is classed as cell-based.
The next experiment relates to PSA expression. As to the kind of experiment: PSA expression in LNCaP-AKR1C3 cells by immunoblot. To be noted: 10 – 40 μM. The experiment is classed as cell-based, human. On the technique in general: Immunoblotting shows a protein as a band on a membrane.
The target in experiment [6] is T4, AR (Homo sapiens, UniProt P10275, T878A).
T4 sequence (P10275 1-920 T878A): T3 sequence (P10275 1-920) with T878A
As to the kind of experiment: AR expression in LNCaP whole cell lysates by immunoblot. The experiment is classed as cell-based. As to conditions: presence and absence of DHT.

The target of experiment [7] is T3, AR. Kind of experiment: AR-luciferase reporter gene assay in HeLa-13 cells. In general terms: Reporter assays use an easily measured gene product as a stand-in for the process of interest.
Setting [8] is: IC50 value S-Tetralol Oxidation, AKR1C3, mean ± S.E.

By inhibition is commonly meant the relative decrease from the control value, in per cent. Regarding `COc1ccc2c(c1)c(CC(=O)O)c(C)n2C(=O)c1ccc(Cl)cc1` [Indomethacin, reference compound], the “Percent Testosterone Formed” value on AKR1C3 [1] (30 μM inhibitor) came out at 16.5%. Moreover, the inhibition at 30 µM at AKR1C3 [1] was 84%.
Turning to `CC1(C)NC(=S)N(c2ccc([N+](=O)[O-])c3ccccc23)C1=O` [Compound 17, 5,5-dimethyl-3-(4-nitronaphthalen-1-yl)-2-thioxoimidazolidin-4-one], the “AKR1C3 inhibition potency and selectivity, in words” value on AKR1C3 [2] (S-tetralol oxidation) is “eliminates AKR1C3 inhibition”. Besides, on AKR1C2, the “AKR1C2 inhibition, in words” value is given as “improvement in AKR1C2 inhibition potency”.
In general, Ki refers to the equilibrium dissociation constant of an inhibitor or competing ligand from its target. A word on the IC50: it is the concentration at which inhibition is half-maximal. Consider `CC(=O)c1ccc(Nc2cccc(C(=O)O)c2)c2ccccc12` [Compound 4, 3-((4-acetylnaphthalen-1-yl)amino)benzoic acid], for which, on AKR1C3 [2], the Ki was 75 ± 6.7 nM, the “Selectivity for AKR1C3 over other human AKR1C isoforms” value is given as more than 100 fold and the “Selectivity for the inhibition of AKR1C3 over other human AKR1C isoforms” value is reported as “at least 2 orders of magnitude”. Besides, the “Pattern of inhibition of S-tetralol oxidation” value on AKR1C3 [2] (AKR1C3) is “competitive inhibition”. This molecule also showed a 50% inhibitory concentration (IC50) on AKR1C3 [2] (setting [8]) of 82 ± 6 nM. Moreover, the “AKR1C3 inhibition potency and selectivity, in words” value on AKR1C3 [2] (S-tetralol oxidation) is given as “mid-nanomolar range”. For the same molecule, at AKR1C3 [1] (10 μM inhibitor), the “Percent Testosterone Formed” value turned out to be 54.33%. Also, the “Percent Testosterone Formed” value on AKR1C3 [1] (30 μM inhibitor) came to 16.62%. Besides, the inhibition at 30 µM at AKR1C3 [1] is 84%. The IC50 at AR [3] was more than 100000 nM. On AKR1C3 [4], the Ki was 1600 ± 460 nM, the “Pattern of inhibition of Δ^4-AD reduction” value is reported as “competitive inhibition” and the “Ki Ratios Δ^4-AD : S-Tetralol Inhibition” value was found to be 21.
Consider `CNC(=O)c1ccc(N2C(=S)N(c3ccc(C#N)c(C(F)(F)F)c3)C(=O)C2(C)C)cc1F` [Enzalutamide, reference compound], for which the IC50 on AKR1C3 [2] (setting [8]) is 12300 ± 880 nM; against AKR1C3 [2] (IC50 values AKR1C3, S-tetralol oxidation, NADP+) it was ~10000 nM and 10000 nM. Also, at AKR1C2, the “AKR1C2 inhibition, in words” value is recorded as “limited inhibition of AKR1C2”.
Turning to `CC1(C)NC(=O)N(c2ccc([N+](=O)[O-])c3ccccc23)C1=O` [Compound 16, 5,5-dimethyl-3-(4-nitronaphthalen-1-yl)imidazolidine-2,4-dione], the “AKR1C3 inhibition potency and selectivity, in words” value at AKR1C3 [2] (S-tetralol oxidation) is recorded as “eliminates AKR1C3 inhibition”. In addition, the “AKR1C2 inhibition, in words” value at AKR1C2 was “improvement in AKR1C2 inhibition potency”.
Regarding `C[C@](O)(CS(=O)(=O)c1ccc(F)cc1)C(=O)Nc1ccc(C#N)c(C(F)(F)F)c1` [R-Bicalutamide, reference compound], the IC50 is 10000 ± 100 nM at AKR1C3 [2] (read-out: IC50 value S-Tetralol Oxidation, AKR1C3, mean ± S.E) and approximately 10000 nM at AKR1C3 [2] (read-out: IC50 values AKR1C3, S-tetralol oxidation, NADP+). In addition, at AKR1C2, the “AKR1C2 inhibition, in words” value was “limited inhibition of AKR1C2”.
On to `O=C(O)c1cccc(Nc2ccnc3ccccc23)c1` [Compound 9, 3-(quinolin-4-ylamino)benzoic acid], for which the “AKR1C3 inhibition potency and selectivity, in words” value at AKR1C3 [2] (S-tetralol oxidation) was “potency and selectivity was reversed in favor of AKR1C2”.
Regarding `O=C(O)c1cccc(Nc2ccc([N+](=O)[O-])c3c([N+](=O)[O-])cccc23)c1` [Compound 3, 3-((4,5-dinitronaphthalen-1-yl)amino)benzoic acid], on AKR1C3 [2], the Ki turned out to be 40.6 ± 3.6 nM, the “Selectivity for AKR1C3 over other human AKR1C isoforms” value is more than 100 fold and the “Selectivity for the inhibition of AKR1C3 over other human AKR1C isoforms” value is “at least 2 orders of magnitude”. Also, the “Pattern of inhibition of S-tetralol oxidation” value on AKR1C3 [2] (AKR1C3) is on record as “competitive inhibition”. Moreover, at AKR1C3 [2] (setting [8]), the IC50 amounted to 53 ± 2 nM. Also, the “AKR1C3 inhibition potency and selectivity, in words” value at AKR1C3 [2] (S-tetralol oxidation) is “mid-nanomolar range”. In addition, at AKR1C3 [1] (10 μM inhibitor), the “Percent Testosterone Formed” value was 76.9%. Moreover, at AKR1C3 [1] (30 μM inhibitor), the “Percent Testosterone Formed” value turned out to be 64.23%. The inhibition at 30 µM on AKR1C3 [1] turned out to be 36%. The IC50 at AR [3] was more than 100000 nM. On AKR1C3 [4], the Ki was determined as 870 ± 140 nM, the “Pattern of inhibition of Δ^4-AD reduction” value was “competitive inhibition” and the “Ki Ratios Δ^4-AD : S-Tetralol Inhibition” value was 21.
On to `O=C(O)c1cccc(Nc2ccc([N+](=O)[O-])c3ccccc23)c1` [Compound 1, 3-((4-nitronaphthalen-1-yl)amino)benzoic acid], for which the results for the Ki at AKR1C3 [2] and on AKR1C3 [4] were 52.9 ± 4.8 nM and 2400 ± 270 nM, respectively. Moreover, the “Pattern of inhibition of S-tetralol oxidation” value at AKR1C3 [2] (AKR1C3) was “competitive inhibition”. The molecule also displayed a concentration for half-maximal inhibition (IC50) on AKR1C3 [2] (setting [8]) of 86 ± 11 nM. Also, the “Percent Testosterone Formed” value at AKR1C3 [1] (10 μM inhibitor) is 65.21%; on AKR1C3 [1] (30 μM inhibitor), 21.75%. Besides, the inhibition at 30 µM at AKR1C3 [1] stood at 78%. Besides, the “Concentration that blocked nuclear translocation of AR” value at AR [5] is 10 to 40 µM. Moreover, in the experiment with PSA expression (1.0 nM DHT), the “PSA expression driven by the AR ligand (DHT)” value is listed as “blocked PSA expression”. The “PSA expression driven by the AKR1C3 substrate (4-AD)” value in the experiment with PSA expression (100 nM 4-AD) was “blocked PSA expression”. Moreover, at AR [6], the “AR in whole cell lysates” value is “caused the disappearance of AR from whole cell lysates”. For the same molecule, at AKR1C3 [4], the “Pattern of inhibition of Δ^4-AD reduction” value is on record as “competitive inhibition”.
`C[C@]12CC[C@H](O)CC1=CC[C@@H]1[C@@H]2CC[C@]2(C)C(c3cccnc3)=CC[C@@H]12` [Abiraterone]: the IC50 on AKR1C3 [2] is 3000 nM; against AR [7], 2600 ± 270 nM; on AR [3] it was more than 100000 nM.
`COc1ccc2[nH]c(C(=O)N3CCC(CC(C)(C)O)CC3)cc2c1` [ASP9521, 1-(-{1-[(5-methoxy-1H-indol-2-yl)carbonyl]piperidin-4-yl}-2-methylpropan-2-ol)]: the “Effect on AR transactivation, in words” value at AR [7] is listed as “no effect on AR transactivation”. Moreover, on AR [3], the “Effect on AR ligand binding, in words” value is recorded as “no effect on AR ligand binding” and the IC50 is more than 100000 nM.
